Source: patent US20090018134A1, “Compounds - 945” (AstraZeneca AB, priority 2007, published 2009)
Where two headings read alike, the source gives them in different places.

Molecular target: T1, mTOR (Homo sapiens, UniProt P42345)
T1 construct: FLAG; made in house
Assay: In Vitro mTOR Kinase Assay (Echo), Test (a)(ii)
Assay type: biochemical
Method in brief: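 Enzyme: HEK293-expressed, FLAG-purified mTOR C-terminal fragment (aa 1362-2549). Rxn 2 h RT with biotinylated peptide, stopped with EDTA 50 mM/BSA/Tris pH 7.4. Detection: T389 phospho-antibody AlphaScreen, 680 nm excitation. IC50.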

[1] = table of enzyme assay Test (a)(ii), read-out: Test (a)(ii) IC50
[2] = read-out: mTOR Kinase Assay (Echo)

T1 sequence (P42345 1362-2549): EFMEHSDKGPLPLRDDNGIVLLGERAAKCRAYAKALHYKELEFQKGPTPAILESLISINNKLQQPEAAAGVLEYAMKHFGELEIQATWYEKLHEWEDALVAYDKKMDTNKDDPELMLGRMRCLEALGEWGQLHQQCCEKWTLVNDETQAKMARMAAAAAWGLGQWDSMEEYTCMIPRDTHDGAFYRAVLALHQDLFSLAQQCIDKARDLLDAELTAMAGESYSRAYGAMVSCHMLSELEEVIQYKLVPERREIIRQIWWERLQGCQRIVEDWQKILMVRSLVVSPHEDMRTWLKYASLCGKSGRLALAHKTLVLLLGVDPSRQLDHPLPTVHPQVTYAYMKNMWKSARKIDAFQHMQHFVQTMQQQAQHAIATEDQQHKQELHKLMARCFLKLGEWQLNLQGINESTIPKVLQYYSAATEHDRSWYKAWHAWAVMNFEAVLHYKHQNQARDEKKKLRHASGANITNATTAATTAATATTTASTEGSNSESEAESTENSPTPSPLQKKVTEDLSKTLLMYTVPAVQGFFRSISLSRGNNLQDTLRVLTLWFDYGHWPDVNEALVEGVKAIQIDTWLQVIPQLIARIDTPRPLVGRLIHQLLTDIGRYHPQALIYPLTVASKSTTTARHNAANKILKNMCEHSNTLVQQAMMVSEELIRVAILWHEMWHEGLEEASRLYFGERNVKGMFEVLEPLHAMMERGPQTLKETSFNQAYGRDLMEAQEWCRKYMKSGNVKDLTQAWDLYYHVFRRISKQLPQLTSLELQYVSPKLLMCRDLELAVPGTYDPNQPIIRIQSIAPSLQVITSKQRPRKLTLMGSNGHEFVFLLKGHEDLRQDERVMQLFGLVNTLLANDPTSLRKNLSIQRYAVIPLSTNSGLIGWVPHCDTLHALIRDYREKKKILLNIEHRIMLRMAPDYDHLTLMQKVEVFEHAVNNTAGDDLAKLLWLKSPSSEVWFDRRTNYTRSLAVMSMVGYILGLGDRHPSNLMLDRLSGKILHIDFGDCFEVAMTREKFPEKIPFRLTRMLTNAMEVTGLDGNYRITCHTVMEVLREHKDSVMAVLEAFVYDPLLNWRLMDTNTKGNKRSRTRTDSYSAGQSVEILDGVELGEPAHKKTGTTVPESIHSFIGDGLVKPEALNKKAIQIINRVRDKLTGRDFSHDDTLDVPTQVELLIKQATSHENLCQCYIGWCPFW

| SMILES | IC50 [1] [nM] | IC50 [2] [nM] |
| --- | --- | --- |
| Cn1cc(NC(=O)Nc2ccc(-c3nc(N4CCOCC4)cc(C4(S(=O)(=O)c5ccccc5)CC4)n3)cc2)cn1 [Example 36dj, 3-[4-[4-[1-(benzenesulfonyl)cyclopropyl]-6-morpholin-4-ylpyrimidin-2-yl]phenyl]-1-(1-methylpyrazol-4-yl)urea] | 8.91 |  |
| CNC(=O)Nc1ccc(-c2nc(N3CCOC[C@@H]3C)cc(C3(S(=O)(=O)c4ccc(F)cc4C)CC3)n2)cc1 [Example 82, 1-[4-[4-[1-(4-Fluoro-2-methylphenyl)sulfonylcyclopropyl]-6-[(3S)-3-methylmorpholin-4-yl]pyrimidin-2-yl]phenyl]-3-methylurea] | 9.39 |  |
| C[C@H]1COCCN1c1cc(C2(S(=O)(=O)c3cccc(F)c3)CC2)nc(-c2ccc(NC(=O)NCCO)cc2)n1 [Example 53b, 1-[4-[4-[1-(3-fluorophenyl)sulfonylcyclopro-pyl]-6-[(3S)-3-methylmorpholin-4-yl]pyrimidin-2-yl]phenyl]-3-(2-hydroxyethyl)urea] | 0.669 |  |
| CNC(=O)Nc1ccc(-c2nc(N3CCOC[C@@H]3C)cc(C3(S(=O)(=O)C4CC4)CC3)n2)cn1 [Example 14a, 1-[5-[4-(1-cyclopropylsulfonylcyclopropyl)-6-[(3S)-3-methylmorpholin-4-yl]pyrimidin-2-yl]pyridin-2-yl]-3-methylurea] | 13.6 |  |
| Cc1csc(S(=O)(=O)C2(c3cc(N4CCOC[C@@H]4C)nc(-c4ccc(NC(=O)N[C@H](C)CO)cc4)n3)CCC2)n1 [Example 98f, 3-[(2R)-1-hydroxypropan-2-yl]-1-[4-[4-[(3S)-3-methylmorpholin-4-yl]-6-[1-[(4-methyl-1,3-thiazol-2-yl)sulfonyl]cyclobutyl]pyrimidin-2-yl]phenyl]urea] | 2.29 |  |
| C[C@H]1COCCN1c1cc(C2(S(=O)(=O)c3ccc(F)cc3)CC2)nc(-c2ccc(NC(=O)NCCC#N)cc2)n1 [Example 36y, 3-(2-cyanoethyl)-1-[4-[4-[1-(4-fluorophenyl)sulfonylcyclopropyl]-6-[(3S)-3-methylmorpholin-4-yl]pyrimidin-2-yl]phenyl]urea] | 1.31 |  |
| C[C@H]1COCCN1c1cc(C2(S(=O)(=O)C3CC3)CC2)nc(-c2ccc(NC(=O)NC3COC3)cc2)n1 [Example 3t, 1-[4-[4-(1-cyclopropylsulfonylcyclopropyl)-6-[(3S)-3-methylmorpholin-4-yl]pyrimidin-2-yl]phenyl]-3-(oxetan-3-yl)urea] |  | 4.79 |
| C[C@H]1COCCN1c1cc(C2(S(=O)(=O)CCCOC(F)F)CC2)nc(-c2ccc(NC(=O)NC3CC3)cc2)n1 [Example 96e, 3-cyclopropyl-1-[4-[4-[1-[3-(difluoromethoxy)propylsulfonyl]cyclopropyl]-6-[(3S)-3-methylmorpholin-4-yl]pyrimidin-2-yl]phenyl]urea] | 8.62 |  |
| C[C@H]1COCCN1c1cc(C2(S(=O)(=O)CCCO)CC2)nc(-c2ccc(NC(=O)NCCF)cc2)n1 [Example 64aj, 3-(2-fluoroethyl)-1-[4-[4-[1-(3-hydroxypropylsulfonyl)cyclopro-pyl]-6-[(3S)-3-methylmorpholin-4-yl]pyrimidin-2-yl]phenyl]urea] | 7.78 |  |
| C[C@H]1COCCN1c1cc(C2(S(=O)(=O)c3ccccc3Cl)CC2)nc(-c2ccc(NC(=O)NCCO)cc2)n1 [Example 76c, 1-[4-[4-[1-(2-chlorophenyl)sulfonylcyclopropyl]-6-[(3S)-3-methylmorpholin-4-yl]pyrimidin-2-yl]phenyl]-3-(2-hydroxyethyl)urea] | 3.19 |  |
| Cc1ccc(F)cc1S(=O)(=O)C1(c2cc(N3CCOC[C@@H]3C)nc(-c3ccc(NC(=O)NCCF)cc3)n2)CC1 [Example 61c, 3-(2-fluoroethyl)-1-[4-[4-[1-(5-fluoro-2-methylphenyl)sulfonylcyclopropyl]-6-[(3S)-3-methylmorpholin-4-yl]pyrimidin-2-yl]phenyl]urea] | 21.1 |  |
| C[C@H]1COCCN1c1cc(C2(S(=O)(=O)c3ccc(F)c(Cl)c3)CC2)nc(-c2ccc(NC(=O)NCCO)cc2)n1 [Example 95c, 1-[4-[4-[1-(3-chloro-4-fluorophenyl)sulfonyl-cyclopropyl]-6-[(3S)-3-methylmorpholin-4-yl]pyrimidin-2-yl]phenyl]-3-(2-hydroxyethyl)urea] | 7.06 |  |
| C[C@H]1COCCN1c1cc(C2(S(C)(=O)=O)CCCC2)nc(-c2cnc(NC(=O)NCCO)nc2)n1 [Example 14u, 3-(2-hydroxyethyl)-1-[5-[4-[(3S)-3-methylmorpholin-4-yl]-6-(1-methylsulfonylcyclopentyl)pyri-midin-2-yl]pyrimidin-2-yl]urea] | 123 |  |
| CNCCS(=O)(=O)C1(c2cc(N3CCOCC3)nc(-c3ccc(NC(=O)NC)cc3)n2)CC1 [Example 97, 3-Methyl-1-[4-[4-[1-(2-methylaminoethylsulfonyl)cyclopropyl]-6-morpholin-4-ylpyrimidin-2-yl]phenyl]urea] | 88.2 |  |
| CC[C@H]1COCCN1c1cc(C2(S(=O)(=O)c3ccccc3)CC2)nc(-c2ccc(NC(=O)NCCF)cc2)n1 [Example 74c, 1-[4-[4-[1-(benzenesulfonyl)cyclopropyl]-6-[(3S)-3-ethylmorpholin-4-yl]pyrimidin-2-yl]phenyl]-3-(2-fluoroethyl)urea] | 3.14 |  |
| C[C@H]1COCCN1c1cc(C2(S(=O)(=O)c3ccccc3)CC2)nc(-c2ccc(NC(=O)Nc3ccon3)cc2)n1 [Example 36dz, 1-[4-[4-[1-(benzenesulfonyl)cyclopropyl]-6-[(3S)-3-methylmorpholin-4-yl]pyrimidin-2-yl]phenyl]-3-(1,2-oxazol-3-yl)urea] | 2.77 |  |
| C[C@H]1COCCN1c1cc(C2(S(=O)(=O)C3CC3)CCC2)nc(-c2ccc(NC(=O)NC(C)(C)CO)cc2)n1 [Example 64w, 1-[4-[4-(1-cyclopropylsulfonylcyclobutyl)-6-[(3S)-3-methylmorpholin-4-yl]pyrimidin-2-yl]phenyl]-3-(1-hydroxy-2-methylpropan-2-yl)urea] | 16.1 |  |
| C[C@H]1COCCN1c1cc(C2(S(=O)(=O)c3ccc(OC(F)F)cc3)CC2)nc(-c2ccc(NC(=O)NCCF)cc2)n1 [Example 64e, 1-[4-[4-[1-[4-(difluoromethoxy)phenyl]sulfonyl-cyclopropyl]-6-[(3S)-3-methylmorpholin-4-yl]pyrimidin-2-yl]phenyl]-3-(2-fluoroethyl)urea] | 5.37 |  |
| Cc1csc(S(=O)(=O)C2(c3cc(N4CCOC[C@@H]4C)nc(-c4ccc(NC(=O)NC5(CO)CC5)cc4)n3)CC2)n1 [Example 36q, 3-[1-(hydroxymethyl)cyclopropyl]-1-[4-[4-[(3S)-3-methylmorpholin-4-yl]-6-[1-[(4-methyl-1,3-thiazol-2-yl)sulfonyl]cyclopropyl]pyrimidin-2-yl]phenyl]urea] | 88.9 |  |
| C[C@H]1COCCN1c1cc(C2(S(C)(=O)=O)CCCC2)nc(-c2ccc(NC(=O)NCCO)cc2)n1 [Example 4e, 3-(2-hydroxyethyl)-1-[4-[4-[(3S)-3-methylmorpholin-4-yl]-6-(1-methylsulfonylcyclopentyl)pyrimidin-2-yl]phenyl]urea] | 0.767 | 1.19 |
| C[C@H]1COCCN1c1cc(C2(S(=O)(=O)c3ccc(F)cc3)CC2)nc(-c2ccc(NC(=O)NCCN(C)C)nc2)n1 [Example 14k, 3-(2-dimethylaminoethyl)-1-[5-[4-[1-(4-fluorophenyl)sulfonylcyclopro-pyl]-6-[(3S)-3-methylmorpholin-4-yl]pyrimidin-2-yl]pyridin-2-yl]urea] | 275 |  |
